Laboratory results from ChEMBL document CHEMBL1909046, “DrugMatrix in vitro pharmacology data”.
*1 amine or outer side, *2 acyl side, *3 side chain or, on linkers, in order; H or OH if unused. Where a SMILES comes first, the peptide text is derived from it. Bridges are numbered along the chain shown (N, C = ends). Roman numbers before positions name the chains, in order. [ ]: non-standard residue; d: D form. Actinocin(1to9) = Cc1c2oc3c(C)ccc(C(=O)[*:2])c3nc-2c(C(=O)[*:1])c(N)c1=O; NMeV = CN[C@H](C(=O)O)C(C)C; Sar = CNCC(=O)O

What was measured:
[1] = target: Vascular endothelial growth factor receptor 1 (Homo sapiens, UniProt P17948); format: cell-based; details: huvec; further: in other assays of this panel Not Active means under 50% inhibition at 10 µM
Sequence of Vascular endothelial growth factor receptor 1 (P17948 whole entry): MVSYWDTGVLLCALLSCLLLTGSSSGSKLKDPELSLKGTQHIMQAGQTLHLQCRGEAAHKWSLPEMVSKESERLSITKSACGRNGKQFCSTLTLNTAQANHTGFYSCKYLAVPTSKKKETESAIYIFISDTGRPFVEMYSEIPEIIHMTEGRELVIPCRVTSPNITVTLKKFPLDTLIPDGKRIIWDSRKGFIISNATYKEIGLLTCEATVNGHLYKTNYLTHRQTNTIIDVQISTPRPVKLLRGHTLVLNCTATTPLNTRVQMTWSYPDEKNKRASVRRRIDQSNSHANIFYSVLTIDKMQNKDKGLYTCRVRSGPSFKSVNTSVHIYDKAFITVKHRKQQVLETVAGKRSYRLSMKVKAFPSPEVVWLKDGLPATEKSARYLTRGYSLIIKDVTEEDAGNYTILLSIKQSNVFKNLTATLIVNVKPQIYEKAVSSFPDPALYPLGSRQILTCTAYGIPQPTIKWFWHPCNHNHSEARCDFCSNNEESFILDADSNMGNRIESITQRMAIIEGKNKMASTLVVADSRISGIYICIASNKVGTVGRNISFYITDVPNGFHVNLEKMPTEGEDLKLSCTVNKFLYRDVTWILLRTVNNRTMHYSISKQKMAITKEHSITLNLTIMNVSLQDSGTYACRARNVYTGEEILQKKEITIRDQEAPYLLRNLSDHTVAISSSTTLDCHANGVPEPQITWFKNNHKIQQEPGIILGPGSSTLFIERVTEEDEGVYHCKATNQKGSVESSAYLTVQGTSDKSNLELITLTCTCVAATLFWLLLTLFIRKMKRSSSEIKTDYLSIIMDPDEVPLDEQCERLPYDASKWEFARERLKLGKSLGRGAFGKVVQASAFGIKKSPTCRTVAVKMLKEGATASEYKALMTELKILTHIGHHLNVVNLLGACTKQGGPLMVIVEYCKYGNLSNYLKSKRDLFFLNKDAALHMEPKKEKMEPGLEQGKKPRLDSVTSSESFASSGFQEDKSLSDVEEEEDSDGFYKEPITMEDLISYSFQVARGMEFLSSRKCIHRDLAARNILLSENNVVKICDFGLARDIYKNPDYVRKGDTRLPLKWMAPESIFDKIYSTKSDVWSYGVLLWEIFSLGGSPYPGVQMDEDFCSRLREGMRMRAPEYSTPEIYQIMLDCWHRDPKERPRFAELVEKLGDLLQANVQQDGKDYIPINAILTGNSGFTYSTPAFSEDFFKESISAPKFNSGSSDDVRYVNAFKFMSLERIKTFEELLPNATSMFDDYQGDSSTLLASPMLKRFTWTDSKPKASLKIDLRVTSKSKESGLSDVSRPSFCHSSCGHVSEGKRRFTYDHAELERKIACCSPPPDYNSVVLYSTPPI

[2] = DRUGMATRIX: Leukotriene, BLT (LTB4) radioligand binding (ligand: [3H]LTB4); format: cell membranes, Membrane; details: u-937; Not Active = under 50% inhibition at 10 µM
[3] = DRUGMATRIX: Glutamate, Kainate radioligand binding (ligand: [3H] Kainic acid); format: cell membranes, Rattus norvegicus, Wistar, Brain, Membrane; details: Not Active = under 50% inhibition at 10 µM
[4] = target: T1, Nitric oxide synthase, inducible (Mus musculus, UniProt P29477); set-up: species or system Escherichia coli;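 further: inhibition of iNOS enzyme activity measured with L-arginine as substrate; in other assays of this panel Not Active means under 50% inhibition at 10 µM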
T1 sequence (P29477 whole entry): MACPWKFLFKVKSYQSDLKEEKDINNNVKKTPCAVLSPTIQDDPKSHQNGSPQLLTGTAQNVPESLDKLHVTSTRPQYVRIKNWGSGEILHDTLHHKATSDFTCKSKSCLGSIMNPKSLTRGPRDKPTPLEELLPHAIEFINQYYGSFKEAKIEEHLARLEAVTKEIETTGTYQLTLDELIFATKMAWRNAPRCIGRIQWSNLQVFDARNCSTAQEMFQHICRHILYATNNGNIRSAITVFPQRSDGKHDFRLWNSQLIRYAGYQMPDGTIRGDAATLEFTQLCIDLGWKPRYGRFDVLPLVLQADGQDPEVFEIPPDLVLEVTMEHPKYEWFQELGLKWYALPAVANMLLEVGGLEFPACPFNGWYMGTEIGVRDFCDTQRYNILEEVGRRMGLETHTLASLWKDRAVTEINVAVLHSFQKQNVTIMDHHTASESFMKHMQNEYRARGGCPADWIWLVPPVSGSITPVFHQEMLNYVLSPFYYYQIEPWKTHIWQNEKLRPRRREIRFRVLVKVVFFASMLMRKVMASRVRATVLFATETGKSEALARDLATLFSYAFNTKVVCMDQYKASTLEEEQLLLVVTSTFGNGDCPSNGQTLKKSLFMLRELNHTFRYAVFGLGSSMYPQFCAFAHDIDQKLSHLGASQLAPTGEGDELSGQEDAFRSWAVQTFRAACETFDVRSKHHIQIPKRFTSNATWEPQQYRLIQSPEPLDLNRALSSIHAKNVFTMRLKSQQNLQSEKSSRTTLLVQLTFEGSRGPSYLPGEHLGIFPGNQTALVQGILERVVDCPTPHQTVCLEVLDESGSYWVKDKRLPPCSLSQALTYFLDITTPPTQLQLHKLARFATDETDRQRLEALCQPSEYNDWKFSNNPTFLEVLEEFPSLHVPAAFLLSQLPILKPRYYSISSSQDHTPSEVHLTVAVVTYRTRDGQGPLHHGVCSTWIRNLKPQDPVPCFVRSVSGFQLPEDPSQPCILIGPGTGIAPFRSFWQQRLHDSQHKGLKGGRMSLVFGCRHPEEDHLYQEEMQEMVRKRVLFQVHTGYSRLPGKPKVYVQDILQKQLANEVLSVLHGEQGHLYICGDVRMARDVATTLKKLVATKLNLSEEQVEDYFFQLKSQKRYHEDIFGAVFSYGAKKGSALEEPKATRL

[5] = DRUGMATRIX: Phosphodiesterase PDE3 enzyme inhibition (substrate: [3H]cAMP + cAMP); format: tissue-based, Homo sapiens; details: platelet; Not Active = under 50% inhibition at 10 µM
[6] = target: T2, C-X-C chemokine receptor type 2 (Homo sapiens, UniProt P25025); format: cell membranes, Membrane; details: cho-k1; further: in other assays of this panel Not Active means under 50% inhibition at 10 µM
T2 sequence (P25025 whole entry): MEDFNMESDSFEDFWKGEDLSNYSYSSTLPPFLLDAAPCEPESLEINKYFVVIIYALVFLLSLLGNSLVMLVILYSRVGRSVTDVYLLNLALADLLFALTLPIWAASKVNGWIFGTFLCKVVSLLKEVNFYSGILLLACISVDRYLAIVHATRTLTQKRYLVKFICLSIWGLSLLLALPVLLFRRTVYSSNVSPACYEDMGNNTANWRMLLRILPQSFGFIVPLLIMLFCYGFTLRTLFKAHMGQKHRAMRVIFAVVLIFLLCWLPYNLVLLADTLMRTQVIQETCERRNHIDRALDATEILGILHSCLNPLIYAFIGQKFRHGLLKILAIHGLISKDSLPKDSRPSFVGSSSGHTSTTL

[7] = target: C-C chemokine receptor type 2 (Homo sapiens, UniProt P41597); format: cell membranes, CHO-K1, Membrane; details: cho-k1; further: in other assays of this panel Not Active means under 50% inhibition at 10 µM
Sequence of C-C chemokine receptor type 2 (P41597 whole entry): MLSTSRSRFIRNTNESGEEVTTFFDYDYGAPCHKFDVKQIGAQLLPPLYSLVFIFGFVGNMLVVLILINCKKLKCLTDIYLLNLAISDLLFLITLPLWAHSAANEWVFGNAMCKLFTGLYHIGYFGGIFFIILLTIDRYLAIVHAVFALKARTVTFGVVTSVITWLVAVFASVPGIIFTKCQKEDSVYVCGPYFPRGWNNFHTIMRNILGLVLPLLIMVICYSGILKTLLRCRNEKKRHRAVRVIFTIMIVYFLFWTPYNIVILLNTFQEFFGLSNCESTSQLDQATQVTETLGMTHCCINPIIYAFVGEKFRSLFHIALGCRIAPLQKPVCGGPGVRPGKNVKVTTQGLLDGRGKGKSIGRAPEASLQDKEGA

[8] = target: Estrogen receptor beta (Homo sapiens, UniProt Q92731); details: sf9; further: in other assays of this panel Not Active means under 50% inhibition at 10 µM
Sequence of Estrogen receptor beta (Q92731 whole entry): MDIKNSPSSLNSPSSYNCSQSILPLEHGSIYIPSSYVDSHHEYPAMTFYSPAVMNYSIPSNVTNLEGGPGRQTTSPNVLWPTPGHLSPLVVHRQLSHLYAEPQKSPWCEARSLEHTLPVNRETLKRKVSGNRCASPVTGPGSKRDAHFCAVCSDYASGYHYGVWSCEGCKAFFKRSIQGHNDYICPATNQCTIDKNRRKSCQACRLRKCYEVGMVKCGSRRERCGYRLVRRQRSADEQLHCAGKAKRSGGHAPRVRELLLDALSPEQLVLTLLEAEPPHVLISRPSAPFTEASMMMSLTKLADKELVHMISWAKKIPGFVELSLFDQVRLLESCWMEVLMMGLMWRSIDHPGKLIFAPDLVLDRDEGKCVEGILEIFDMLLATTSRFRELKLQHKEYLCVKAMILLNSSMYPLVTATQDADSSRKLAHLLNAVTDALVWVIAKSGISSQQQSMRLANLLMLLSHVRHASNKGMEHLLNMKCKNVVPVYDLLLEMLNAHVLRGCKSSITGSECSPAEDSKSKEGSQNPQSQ

[9] = target: Cytochrome P450 2C9 (Homo sapiens, UniProt P11712); details: bti-tn-5b1-4; further: in other assays of this panel Not Active means under 50% inhibition at 10 µM
Sequence of Cytochrome P450 2C9 (P11712 whole entry): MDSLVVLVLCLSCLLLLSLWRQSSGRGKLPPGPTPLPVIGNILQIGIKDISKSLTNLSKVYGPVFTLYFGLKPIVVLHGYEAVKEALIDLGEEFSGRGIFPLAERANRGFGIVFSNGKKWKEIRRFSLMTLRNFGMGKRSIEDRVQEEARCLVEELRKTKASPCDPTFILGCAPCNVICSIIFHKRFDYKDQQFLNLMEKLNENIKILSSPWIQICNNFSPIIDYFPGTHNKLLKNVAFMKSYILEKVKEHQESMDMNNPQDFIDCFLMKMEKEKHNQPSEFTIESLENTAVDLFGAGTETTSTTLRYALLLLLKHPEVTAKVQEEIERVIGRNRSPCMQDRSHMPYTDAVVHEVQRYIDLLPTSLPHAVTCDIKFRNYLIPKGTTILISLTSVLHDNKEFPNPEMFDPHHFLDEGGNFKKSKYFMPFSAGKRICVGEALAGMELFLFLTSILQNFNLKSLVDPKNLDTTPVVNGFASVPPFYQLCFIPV

Cc1c(C)c2c(c(C)c1O)CC[C@@](C)(CCC[C@H](C)CCC[C@H](C)CCCC(C)C)O2 [ALPHA-TOCOPHEROL]
Not Active: IC50 [1] | IC50 [2] | Ki [2] | IC50 [3] | Ki [3] | IC50 [4] | IC50 [5] | Ki [5] | IC50 [6] | IC50 [7] | IC50 [8] | IC50 [9] | Ki [9]

Cc1ccc(/N=C/N(C)/C=N/c2ccc(C)cc2C)c(C)c1 [AMITRAZ]
Not Active: IC50 [1] | IC50 [2] | Ki [2] | IC50 [3] | Ki [3] | IC50 [4] | IC50 [5] | Ki [5] | IC50 [6] | IC50 [7] | IC50 [8] | IC50 [9] | Ki [9]

CCOC(=O)C1=C(COCCN)NC(C)=C(C(=O)OC)C1c1ccccc1Cl (stereo not drawn) [AMLODIPINE]
Not Active: IC50 [1] | IC50 [2] | Ki [2] | IC50 [3] | Ki [3] | IC50 [4] | IC50 [5] | Ki [5] | IC50 [6] | IC50 [7] | IC50 [8] | IC50 [9] | Ki [9]

COc1ccc(C[C@H]2NC[C@H](O)[C@H]2OC(C)=O)cc1 [ANISOMYCIN]
Not Active: IC50 [1] | Ki [1] | IC50 [2] | Ki [2] | IC50 [3] | Ki [3] | IC50 [4] | Ki [4] | IC50 [5] | Ki [5] | IC50 [6] | Ki [6] | IC50 [7] | Ki [7] | IC50 [8] | Ki [8] | IC50 [9] | Ki [9]

CN(C)C(=O)Oc1cc(OC(=O)N(C)C)cc(C(O)CNC(C)(C)C)c1 (stereo not drawn) [BAMBUTEROL]
Not Active: IC50 [1] | IC50 [2] | Ki [2] | IC50 [3] | Ki [3] | IC50 [4] | IC50 [5] | Ki [5] | IC50 [6] | IC50 [7] | IC50 [8] | IC50 [9] | Ki [9]

c1ccc2c(c1)c1cccc3ccc4cccc2c4c31 [BENZO[E]PYRENE]
Not Active: IC50 [1] | IC50 [2] | Ki [2] | IC50 [3] | Ki [3] | IC50 [4] | IC50 [5] | Ki [5] | IC50 [6] | IC50 [7] | IC50 [8] | IC50 [9] | Ki [9]

CC(C)C(Br)C(=O)NC(N)=O (stereo not drawn) [BROMISOVALUM]
Not Active: IC50 [1] | IC50 [2] | Ki [2] | IC50 [3] | Ki [3] | IC50 [4] | IC50 [5] | Ki [5] | IC50 [6] | IC50 [7] | IC50 [8] | IC50 [9] | Ki [9]

CCCC1O[C@@H]2C[C@H]3[C@@H]4CCC5=CC(=O)C=C[C@]5(C)[C@H]4[C@@H](O)C[C@]3(C)[C@]2(C(=O)CO)O1 (stereo partly drawn) [BUDESONIDE]
Not Active: IC50 [1] | IC50 [2] | Ki [2] | IC50 [3] | Ki [3] | IC50 [4] | IC50 [5] | Ki [5] | IC50 [6] | IC50 [7] | IC50 [8] | IC50 [9] | Ki [9]

CC(NC(C)(C)C)C(=O)c1cccc(Cl)c1 (stereo not drawn) [BUPROPION]
Not Active: IC50 [1] | IC50 [2] | Ki [2] | IC50 [3] | Ki [3] | IC50 [4] | IC50 [5] | Ki [5] | IC50 [6] | IC50 [7] | IC50 [8] | IC50 [9] | Ki [9]

CN(Cc1ccc(C(C)(C)C)cc1)Cc1cccc2ccccc12 [BUTENAFINE]
Not Active: IC50 [1] | IC50 [2] | Ki [2] | IC50 [3] | Ki [3] | IC50 [4] | IC50 [5] | Ki [5] | IC50 [6] | IC50 [7] | IC50 [8] | IC50 [9] | Ki [9]

C[C@H](CS)C(=O)N1CCC[C@H]1C(=O)O [CAPTOPRIL]
Not Active: IC50 [1] | IC50 [2] | Ki [2] | IC50 [3] | Ki [3] | IC50 [4] | IC50 [5] | Ki [5] | IC50 [6] | IC50 [7] | IC50 [8] | IC50 [9] | Ki [9]

Cc1cc(C2CCCCC2)n(O)c(=O)c1 [CICLOPIROX]
Not Active: IC50 [1] | IC50 [2] | Ki [2] | IC50 [3] | Ki [3] | IC50 [4] | IC50 [5] | Ki [5] | IC50 [6] | IC50 [7] | IC50 [8] | IC50 [9] | Ki [9]

CC1=C2C(=CO[C@H](C)[C@H]2C)C(O)=C(C(=O)O)C1=O [CITRININ]
Not Active: IC50 [1] | IC50 [2] | Ki [2] | IC50 [3] | Ki [3] | IC50 [4] | IC50 [5] | Ki [5] | IC50 [6] | IC50 [7] | IC50 [8] | IC50 [9] | Ki [9]

CC(C)(C)NCC(O)c1cc(Cl)c(N)c(Cl)c1 (stereo not drawn) [CLENBUTEROL]
Not Active: IC50 [1] | IC50 [2] | Ki [2] | IC50 [3] | Ki [3] | IC50 [4] | IC50 [5] | Ki [5] | IC50 [6] | IC50 [7] | IC50 [8] | IC50 [9] | Ki [9]

CC1CC(OC(=O)C(O)c2ccccc2)CC(C)(C)C1 (stereo not drawn) [CYCLANDELATE]
Not Active: IC50 [1] | IC50 [2] | Ki [2] | IC50 [3] | Ki [3] | IC50 [4] | IC50 [5] | Ki [5] | IC50 [6] | IC50 [7] | IC50 [8] | IC50 [9] | Ki [9]

Cc1c2oc3c(C)ccc(C(=O)N[C@@H]4C(=O)N[C@H](C(C)C)C(=O)N5CCC[C@H]5C(=O)N(C)CC(=O)N(C)[C@@H](C(C)C)C(=O)O[C@@H]4C)c3nc-2c(C(=O)N[C@@H]2C(=O)N[C@H](C(C)C)C(=O)N3CCC[C@H]3C(=O)N(C)CC(=O)N(C)[C@@H](C(C)C)C(=O)O[C@@H]2C)c(N)c1=O [DACTINOMYCIN] (I: T[dV]P[Sar][NMeV] / II: T[dV]P[Sar][NMeV]; ester I:1-I:C, II:1-II:C; linker I:N-II:N via Actinocin(1to9))
Not Active: IC50 [1] | IC50 [2] | Ki [2] | IC50 [3] | Ki [3] | IC50 [4] | IC50 [5] | Ki [5] | IC50 [6] | IC50 [7] | IC50 [8] | IC50 [9] | Ki [9]
